Reference: patent US20110182943A1, “METHODS OF IMMUNE OR HEMATOLOGICAL ENHANCEMENT, INHIBITING TUMOUR FORMATION OR GROWTH, AND TREATING OR PREVENTING CANCER, CANCER SYMPTOMS, OR THE SYMPTOMS OF CANCER TREATMENTS” (FONTERRA CO-OPERATIVE GROUP LIMITED, priority 2007, published 2011)

How the values were obtained:
[1] = paclitaxel 30 mg/kg i.p.
Experimental: The jejuni from mice were fixed in 4% paraformaldehyde, embedded in paraffin, sectioned at 4 μm, and sections stained with hematoxylin-eosin. In each specimen, 20 well preserved villi were randomly selected and their lengths were measured by microscopy using an objective micrometer.
To determine whether milk fat protected the gut against paclitaxel-induced damage, groups of 6 Balb/c mice were fed the base AIN-93 diet, or the same diet substituted with 5% milk fat, representing ˜71% of the fat component of the diet. Two weeks later each mouse received an intraperitoneal injection of paclitaxel (30 mg/kg body weight). One week later they were killed and the jejunum was removed. Paraffin-embedded sections of the jejunum of mice treated with control diet, milk fat diet, control diet plus paclitaxel, and milk fat diet plus paclitaxel were stained with hematoxylin and eosin.

4T1 primary tumours = test: 4T1 tumour angiogenesis (anti-CD31 staining); assay type: in vivo, Balb/c mice; conditions: day 35
Experimental: To determine tumour vascularity, 10-μm frozen tumour sections were fixed with acetone, rinsed with PBS, blocked with 2% BSA for 2 hr, and incubated overnight with the anti-CD31 antibody MEC13.3, or an anti-CD105 mAb. They were subsequently incubated for 30 min with secondary antibodies using the VECTASTAIN Universal Quick kit (Vector Laboratories, Burlingame, Calif., USA); and developed with Sigma FAST DAB (3,3′-diaminobenzidine tetrahydrochloride) and CoCl2 enhancer tablets (Sigma), and counterstained with hematoxylin. Stained blood vessels were counted in five or six blindly chosen random fields (0.155 mm^2) at ×40 magnification, and the mean of the highest three counts was calculated. […]
The above 4T1 primary tumours (Example 8; day 35) of untreated mice fed the control diet, paclitaxel-treated mice fed the control diet, untreated mice fed milk fat, and paclitaxel-treated mice fed milk fat were excised, sectioned, and stained with an anti-CD31 antibody to identify vascular endothelial cells so as to measure tumour angiogenesis. Blood vessels stained with the anti-CD31 mAb were counted in blindly chosen random fields to record mean vessel density (8A), or the median distance to the nearest CD31 mAb-labeled blood vessel from an array point (8B).

[2] = Paclitaxel-induced apoptosis in jejunal crypts (TUNEL); assay type: in vivo, Balb/c mice; conditions: paclitaxel 30 mg/kg i.p.
Experimental: Tumours were excised and immediately frozen in dry ice, and stored at −70° C. for later in situ detection of apoptotic cells in tumours. Frozen serial sections of 6-μm thickness were fixed with paraformaldehyde solution (4% in PBS, pH 7.4), and permeabilized with a solution containing 0.1% Triton X-100 and 0.1% sodium citrate. They were incubated with 20 μl TUNEL reagent (In Situ apoptosis detection kit from Boehringer Mannheim, Germany) for 60 min at 37° C., and examined by fluorescence microscopy. Adjacent sections were counter-stained with haematoxylin to count the total number of cells, or the number of apoptotic cells in ten randomly selected fields (magnification of ×40). The apototic index (AI) was calculated as the number of apoptotic cells×100/total number of nucleated cells. For detection of apoptotic cells in vitro, the numbers of apoptotic and necrotic tumour cells were measured by staining with annexin-V-fluos, TUNEL, and trypan blue. For measurement of gut apoptosis, jejunal sections were stained by the TUNEL method using a DeadEnd™ Fluorometric TUNEL System (Promega, Madison, Wis., USA). Apoptotic cells in 10 randomly selected cypts were counted, and the data expressed as apoptotic bodies per crypt.

4T1 tumour cells = test: 4T1 breast cancer primary tumour growth; assay type: in vivo, Balb/c mice
Experimental: Tumours were established by s.c. injection of 2×10^5 EL-4 or 2×10^4 4T1 cells into the left flank of mice, and tumour growth determined by measuring two perpendicular diameters. Animals were euthanased when tumours reached more than 1.0 cm in diameter, in accord with Animal Ethics Approval (University of Auckland). All experiments included 5 or 6 mice per treatment group, unless otherwise indicated. Paclitaxel (30 mg dissolved in 5 ml of Cremophor® EL and dehydrated alcohol) was diluted in 0.9% NaCl and administered i.p. at 30 mg/Kg.
Groups of 6 Balb/c mice were fed the base AIN-93 diet, or the same diet substituted with 5% milk fat, representing ˜71% of the fat component of the diet. Mice were challenged subcutaneously with 2×10^4 4T1 tumour cells two weeks after being placed on the diets. The mice were monitored for tumour growth, and tumour size was measured every three days.

[3] = test system: 4T1 breast cancer tumours; test: 4T1 lung surface metastases; assay type: in vivo, Balb/c mice; conditions: day 35
From the text: Suppression of lung metastases: The 4T1 breast cancer cell line is highly metastatic and disseminates to the lung and liver. The lungs of the mice in Example 8 (day 35) were inspected for tumours and micrometastases. The mean numbers of tumours on the lung surface of untreated mice fed the control diet, paclitaxel-treated mice fed the control diet, untreated mice fed milk fat, and paclitaxel-treated mice fed milk fat were 32, 18, 22, and 10, respectively (FIG. 6).

[4] = Blood cell counts in 4T1 tumour-bearing mice; assay type: in vivo, Balb/c mice
[5] = Body, tumour, organ and tissue weights (cachexia) in 4T1 tumour-bearing mice
Experimental: Tumours were established by s.c. injection of 2×10^5 EL-4 or 2×10^4 4T1 cells into the left flank of mice, and tumour growth determined by measuring two perpendicular diameters. […] All experiments included 5 or 6 mice per treatment group, unless otherwise indicated. Paclitaxel (30 mg dissolved in 5 ml of Cremophor® EL and dehydrated alcohol) was diluted in 0.9% NaCl and administered i.p. at 30 mg/Kg. In the case of the 4T1 metastatic model of breast cancer, after the mice were euthanased at the end of experiments, the organs including lung, liver and spleen were removed and weighed.
The mice were weighed at the start and end of the experiment. After the mice were euthanased, the tumours were excised and weighed. To determine the extent of adipose tissue and muscle wasting, epididymal adipose tissue and the left gastrocnemius muscle were dissected and weighed. The carcass weight was calculated as the difference in weight between the whole body and the tumour.

[6] = test system: 4T1 breast cancer tumours; test: 4T1 liver metastases; assay type: in vivo, Balb/c mice; conditions: day 35
From the text: Suppression of liver metastases: Similarly, the livers of the above mice were inspected for tumours and micrometastases. The livers were removed, section, and stained with hematoxylin/eosin, and the numbers of metastatic nodules inside the livers were counted.

[7] = test system: jejunal γ-glutamyl transpeptidase (γ-GGT); conditions: paclitaxel 30 mg/kg i.p.
Experimental: The activity of jejunal γ-glutamyl transpeptidase (γ-GGT) was recorded as a separate measure of gut damage, as described previously Ziotnik et al., 2005). A segment of the jejunum (approximately 5 cm) was excised and flushed with 10 ml of PBS, and cut into two 2 cm^2 segments which were placed into 1.0 ml of 1.0% Triton X-100, 0.15 M NaCl, 100 mM Tris, pH 8.0 (Tris buffer). Twenty microlitres of a solution containing 0.3 ml of 100 mM glycyl-glycine, pH 8.0, 0.08 ml Tris buffer, 0.5 ml of 5 mM γ-glutamyl-p-nitroanilide was added to final volume of 0.9 ml. The gut slices were incubated for 10 min in a shaking water bath at 37° C., and γ-GGT activity read at 405 nm. Results were expressed as units of γ-GGT activity per cm of jejunum, where one unit is defined as the γ-GGT activity that releases 1.0 mol of p-nitroaniline in 1 h.
To determine whether milk fat protected the gut against paclitaxel-induced damage, groups of 6 Balb/c mice were fed the base AIN-93 diet, or the same diet substituted with 5% milk fat, representing ˜71% of the fat component of the diet. Two weeks later each mouse received an intraperitoneal injection of paclitaxel (30 mg/kg body weight). One week later they were killed and the jejunum was removed.

EL-4 tumour cells = test: EL-4 lymphoma tumour growth in mice fed experimental diets; assay type: in vivo, C57BL/6 mice
From the text: Mice were challenged subcutaneously with 2×10^5 EL-4 tumour cells two weeks after being placed on the diets. Tumour size as measured by two perpendicular diameters (in centimetres) was monitored until day 91, or until tumours reached 1 cm in diameter. Each point represents the mean tumour size with 95% confidence intervals for either 6 mice, or the number of mice indicated.
Groups of six mice were fed a control AIN-93G diet, diets containing either 28 g Lf+ or 120 g of milk fat (AMF) per 2.4 Kg of diet, or a diet containing a combination of both Lf and milk fat. Day 0 refers to the day the mice were placed on their diets. After 2 weeks on the diets, 2×10^5 EL-4 cells were injected into the flanks of mice. Tumour size as measured by two perpendicular diameters (in centimetres) was monitored until day 56. Each point represents the mean tumour size with 95% confidence intervals for either 6 mice, or the number of mice indicated.
Mice were challenged subcutaneously with EL-4 tumour cells two weeks after being placed on the diets. Tumour size was again measured by two perpendicular diameters (in centimetres).

[8] = day 4; 300 mg/Kg i.p.; irrespective of the diet fed
Experimental: Cyclophosphamide, diluted in PBS, was administered i.p. at 300 mg/Kg.
(§1) Groups of six C57BL/6 mice were fed an AIN93G diet or the same diet substituted with either 5%, 25% or 70% milk fat, and after 4 weeks of feeding were injected intraperitoneally with cyclophosphamide (300 mg/Kg of body weight) at day 0. The mice were killed 4, 8, and 12 days later, and tissues analyzed for the side-effects of drug treatment, as described below.

[9] = single injection 300 mg/Kg i.p.; control diet
Experimental: as §1

[10] = paclitaxel chemotherapy, control diet
[11] = tumour-bearing mice, mean ± SEM, n = 6

For `CC(=O)O[C@H]1C(=O)[C@@]2(C)[C@H]([C@H](OC(=O)c3ccccc3)[C@]3(O)C[C@H](OC(=O)[C@H](O)[C@@H](NC(=O)c4ccccc4)c4ccccc4)C(C)=C1C3(C)C)[C@]1(OC(C)=O)CO[C@@H]1C[C@@H]2O` [paclitaxel], the “appearance of jejunal villi in sections” value ([1]; hematoxylin and eosin) was “broken and flattened villi”, the “reduction in average length of the villi compared with control mice” value ([1]; jejunum one week later) was 61% and the “increase in median distance to the nearest CD31+ vessels compared with untreated mice fed the control diet” value (4T1 primary tumours) was 71%. The “reduction in microvessel density (CD31+ vessels) compared with untreated mice fed the control diet” value (4T1 primary tumours) was 37%, the “increase in apoptotic body count per crypt compared with untreated mice” value [2] was 6 fold and the “reduction in tumour size compared with untreated mice fed the control diet” value (4T1 tumour cells; day 35, 5% milk fat diet, paclitaxel 30 mg/kg i.p. at ~0.5 cm) was 31%. For the same compound, the “mean number of tumours on the lung surface” value [3] was 18, the “reduction in numbers of tumours on the lung surface compared with untreated mice fed the control diet” value [3] was 44% and the “reduction in RBC count compared to tumour-bearing mice fed the control diet” value [4, 10] was 49%. The “reduction in WBC count compared to tumour-bearing mice fed the control diet” value [4, 10] was 44%, the RBC [4, 11] was 3.21 ± 0.74^3 ×10^6/μl and the WBC [4, 11] was 2.37 ± 0.39^3 ×10^3/μl. The “reduction in lung weight compared to untreated mice fed the control diet” value ([5]; day 35, tumour-bearing mice) was 30%, the “reduction in spleen weights compared to tumour-bearing mice fed the control diet” value [5, 10] was 8.5% and the Body weight [5, 11] was 17.7 ± 1.5 g. It also gave a Carcass body weight [5, 11] of 17.6 ± 1.4 g, an Epididymal adipose tissue [5, 11] of 24.3 ± 6.7 mg and a Gastrocnemius muscle [5, 11] of 101.2 ± 9.3 mg. The Liver [5, 11] was 1210.1 ± 72.4 mg, the Lung [5, 11] was 274.5 ± 30.6^3 mg and the Spleen [5, 11] was 72.35 ± 8.2^3 mg. The Tumor [5, 11] was 103.4 ± 24.1^3 mg, the “mean number of liver metastases” value [6] was 59 and the “reduction in numbers of tumours in the liver compared with untreated mice fed the control diet” value [6] was 45%. For the same compound, the “reduction in jejunal γ-GGT activity compared to untreated control mice” value [7] was 56%.
In the case of sphingomyelin, the “delay of tumour growth in two mice” value (EL-4 tumour cells; 1.2 g per 2.4 Kg of diet) is reported as roughly 1 week, the “delay of tumour growth in two other mice” value (EL-4 tumour cells; 1.2 g per 2.4 Kg of diet) is reported as roughly 2 weeks and the “effect on tumour growth / tumorigenesis in individual mice” value (EL-4 tumour cells; groups of five mice, per 2.4 Kg of diet: 28 g Lf+, 120 g Phospholac 600, 1.2 g sphingomyelin) is reported as “no appreciable affect on tumour growth of the remaining mouse”.
For `O=P1(N(CCCl)CCCl)NCCCO1` (centres unmarked) [cyclophosphamide], the “reduction of peripheral WBC count” value [8] was “more than 90%” and the “reduction in average length of the villi compared with healthy control mice” value [9] was 65%.
For `CCCCCC/C=C/C=C\CCCCCCCC(=O)O` (single isomer, unassigned) [c-9, t-11 CLA isomer], the “synergy with Lf+” value (4T1 tumour cells; 5 g per 2.4 Kg of diet) was “no synergy” and the “effect on growth of 4T1 tumours” value (4T1 tumour cells; 5 g per 2.4 Kg of diet, 3% of the fat component) was “only wealdy inhibited”.
